Test [1] addresses T1, estrogen receptor (ER) (Homo sapiens, UniProt P03372).
T1 sequence (P03372 1-595): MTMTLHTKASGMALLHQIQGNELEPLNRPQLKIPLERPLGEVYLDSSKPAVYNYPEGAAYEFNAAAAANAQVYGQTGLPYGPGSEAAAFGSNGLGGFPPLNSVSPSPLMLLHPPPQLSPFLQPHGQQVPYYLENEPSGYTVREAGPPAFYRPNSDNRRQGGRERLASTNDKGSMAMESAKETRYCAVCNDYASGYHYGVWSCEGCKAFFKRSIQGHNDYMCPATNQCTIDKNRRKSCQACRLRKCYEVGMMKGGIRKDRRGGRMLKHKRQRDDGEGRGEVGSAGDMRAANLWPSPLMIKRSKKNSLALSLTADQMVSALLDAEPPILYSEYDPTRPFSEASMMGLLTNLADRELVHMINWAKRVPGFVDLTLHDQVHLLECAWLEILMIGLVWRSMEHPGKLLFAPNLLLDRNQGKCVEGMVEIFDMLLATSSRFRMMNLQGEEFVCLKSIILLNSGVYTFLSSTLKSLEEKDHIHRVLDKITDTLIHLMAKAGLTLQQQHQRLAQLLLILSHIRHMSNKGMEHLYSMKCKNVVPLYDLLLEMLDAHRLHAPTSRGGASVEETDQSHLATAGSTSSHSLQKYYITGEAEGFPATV
As to the kind of experiment: adeno-reporter assay in purified primary breast cancer cells (tumour, lymph node). It counts as cell-based. Conditions: E2 10 nM, OHT 100 nM, ICI 100 nM, 48 h. Here is the method: (§1) The product was then filtered through a nylon mesh (Lockertex Ltd, Merseyside, UK) and the filtrate centrifuged at 2000 rpm, at room temperature (RT). The pellet was re-suspended in 9 mls of RPMI/1% FCS and a cell count performed to estimate the number of tumour cells in the preparation. […] A count of viable tumour cells was performed using trypan blue (Sigma, Poole, UK) prior to seeding in breast complete medium (DMEM/F-12 containing, 15 mM Hepes, 2 mM L-glutamine, 100U/ml penicillin, O. 1 mg/ml streptomycin, 50 U/ml polymixin B, 2.5 μg/ml amphotericin B, 5 μg/ml insulin, 10 μg/ml apo-transferrin, 100 μM ethanolamine, 1 μg/ml hydrocortisone, 10 ng/ml EGF) plus 5% FCS) for culture. The cells were used for experiments on day 3 after the initial plating.
(§2) For infections of primary cells, 6-10,000 cells/well were allowed and exposed to the given quantity of virus, after which they were pelleted and re-supended in 200 ul of PR free/5% DSS medium containing the appropriate ligands prior to plating into 96-well plates.
(§3) Cells were incubated for 48 hours following infections unless stated otherwise.
(§4) Reporter Gene Assay 48 hours after virus infection, 20 ul of 20% Triton in PBS was added to each well and incubated at RT for 10 minutes. […] (CRPG) made up in TBS at a concentration of 8 mg/ml was then added to the wells and the plate was incubated, foil-wrapped, at 37° C. until a colour change was observed. Plate readings were taken at a wavelength of 547 nm.
(§5) We have used the adeno-reporter to infect purified cells from breast cancer and lymph nodes of 19 patients. The reporter assay was performed in a blinded fashion since the IHC report of ER status was not available until after the experiments were complete. Viral infections were performed in suspension so as not to loose cancer cells since they were only loosely adherent. Following exposure to the virus for an hour, the cells were washed to remove excess virus and then plated and incubated in PR free/5% DSS supplemented with the given ligands for 48 hours.

For test [2], the system named is estrogen receptor (ER). Described as above. It is filed as cell-based, human. Conditions: for Reporter response: E2 10 nM, OHT 100 nM, ICI 100 nM, 48 h. Here is the method: as §1, §2, §3, §4, §5

From patent publication US20050100888A1, “Methods based on hormone dependency of primary cancer cells” (Imperial College Innovations Limited, priority 2002, published 2005) come the findings set out here.

As to `C[C@]12CC[C@@H]3c4ccc(O)cc4C[C@@H](CCCCCCCCC[S+]([O-])CCCC(F)(F)C(F)(F)F)[C@H]3[C@@H]1CC[C@@H]2O` (stereo partly shown) [ICI 182,780], the Reporter response entry is given as “inh” on estrogen receptor (ER) [1] (Table 2 patient 6, ER+++/PR+++); “inh” at estrogen receptor (ER) [1] (Table 2 patient 7, ER+++/PR+++, Post); “inh” in the test on estrogen receptor (ER) [2] (Table 2 patient 3 Ln); “ns” with estrogen receptor (ER) [2] (Table 2 patient 5 Ln, ER+/PR−, Pre); “ns” in the test with estrogen receptor (ER) [2] (Table 2 patient 8, ER+++/PR−, Post); “inh” in the test on estrogen receptor (ER) [2] (Table 2 patient 11, receptor status ?). In addition, the Reporter response result is listed as “ns” in the test on estrogen receptor (ER) [2] (Table 2 patient 12 Ln); “ns” in the test with estrogen receptor (ER) [2] (Table 2 patient 12 Tu, Anaplastic small cell carcinoma, ER−/PR−); “ns” with estrogen receptor (ER) [2] (Table 2 patient 13, ER−/PR−, Post); “ns” in the test on estrogen receptor (ER) [2] (Table 2 patient 15 Ln); “ns” in the test with estrogen receptor (ER) [2] (Table 2 patient 15 Tu, ER−/PR−); “ns” in the test with estrogen receptor (ER) [2] (Table 2 patient 16 Ln). The Reporter response entry in the test with estrogen receptor (ER) [2] (Table 2 patient 16 Tu, Post) is listed as “ns”; in the test with estrogen receptor (ER) [2] (Table 2 patient 17), “ns”; with estrogen receptor (ER) [2] (Table 2 patient 18, ER−/PR−) it was “ns”. In addition, in the test on estrogen receptor (ER) [2] (purified cells from breast cancer and lymph nodes of 19 patients), the “effect on reporter activity across patient samples” value is on record as “inhibitory in all cases”.
